Article PMC13046274, “Post-translational modifications of GlmR integrate metabolic and stress signals to maintain cell envelope homeostasis in Bacillus subtilis” (PLOS Genetics, 2026)

Assays:
GlmR [1] = target: T1, GlmR (Bacillus subtilis, UniProt O06974, T304A); test: fluorescence titration of FITC-labeled GlmR T304A, single-site fit; format: binding
T1 construct: gene mgfK; purified recombinant B. subtilis GlmR T304A, FITC-labeled (pET28a, from E. coli)

GlmR [2] = target: T2, GlmR (Bacillus subtilis, UniProt O06974); test: fluorescence titration of FITC-labeled GlmR, single-site fit; format: binding
T2 construct: gene mgfK; purified recombinant B. subtilis GlmR, FITC-labeled (pET28a, from E. coli)
T2 sequence (O06974 whole entry): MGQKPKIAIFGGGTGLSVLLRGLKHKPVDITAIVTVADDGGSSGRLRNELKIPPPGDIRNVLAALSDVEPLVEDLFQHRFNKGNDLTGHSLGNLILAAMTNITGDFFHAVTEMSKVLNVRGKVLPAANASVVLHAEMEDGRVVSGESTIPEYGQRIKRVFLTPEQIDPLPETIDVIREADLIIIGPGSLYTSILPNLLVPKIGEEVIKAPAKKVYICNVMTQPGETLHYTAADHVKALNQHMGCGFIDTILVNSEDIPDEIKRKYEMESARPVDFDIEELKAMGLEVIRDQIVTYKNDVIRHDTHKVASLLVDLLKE

T1 sequence (O06974 whole entry T304A): as the sequence (O06974 whole entry) above, with T304A counted along it

Q: Which Kd (GlmR [1]) does the source give for `CC(=O)N[C@H]1[C@@H](OP(=O)(O)OP(=O)(O)OC[C@H]2O[C@@H](n3ccc(=O)[nH]c3=O)[C@H](O)[C@@H]2O)O[C@H](CO)[C@@H](O)[C@@H]1O` [UDP-GlcNAc] here?
A: 1670 ± 310 µM

Q: What about the Kd (GlmR [2]) of the same molecule?
A: 280 ± 40 µM
